Assays:
barnyardgrass [1] = test: Test A pre-/postemergence herbicide test; assay type: in vivo, Echinochloa crus-galli
In short: (§1)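 Scoring was visual, relative to untreated controls, on a 0–100 scale after about 10 greenhouse days. Preemergence treatment used a directed soil spray over seeded loam/sand; postemergence treatment targeted one- to two-leaf plants of 2–10 cm.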

kochia = test: Test A pre-/postemergence herbicide test; assay type: in vivo, Kochia scoparia
In short: as §1

ragweed = test: Test A pre-/postemergence herbicide test; assay type: in vivo, Ambrosia elatior
In short: as §1

ryegrass, Italian = test: Test A pre-/postemergence herbicide test; assay type: in vivo, Lolium multiflorum
In short: as §1

giant foxtail = test: Test A pre-/postemergence herbicide test; assay type: in vivo, Setaria faberii
In short: as §1

pigweed = test: Test A pre-/postemergence herbicide test; assay type: in vivo, Amaranthus retroflexus
In short: as §1

wheat = test: Test A pre-/postemergence herbicide test; assay type: in vivo, Triticum aestivum; conditions: Postemergence
In short: as §1

corn = test: Test A pre-/postemergence herbicide test; assay type: in vivo, Zea mays; conditions: Postemergence
In short: as §1

blackgrass = test: Test A postemergence herbicide test; assay type: in vivo, Alopecurus myosuroides
In short: (§2)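 Injury was rated visually about 10 days after treatment on a 0 (no effect) to 100 (complete control) scale, compared with untreated plants. Test chemicals were sprayed postemergence onto greenhouse plants 2–10 cm high at one to two leaves, grown in a loam–sand blend.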

galium = test: Test A postemergence herbicide test; assay type: in vivo, Galium aparine
In short: as §2

rice = test: Test B flooded paddy test; assay type: in vivo, Oryza sativa; conditions: 500 g ai/ha, Flood; scale of 0 to 100 where 0 is no effect and 100 is complete control
In short: (§3)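 Plants were grown to the 2-leaf stage, then pots were flooded to 3 cm above the soil and compound was applied directly into the paddy water, with that depth held throughout. After 13 to 15 days in a greenhouse, injury was rated visually against untreated controls on a 0 to 100 scale (100 = complete control).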

sedge, umbrella = test: Test B flooded paddy test; assay type: in vivo, Cyperus difformis; conditions: 500 g ai/ha, Flood; scale of 0 to 100 where 0 is no effect and 100 is complete control
In short: as §3

ducksalad = test: Test B flooded paddy test; assay type: in vivo, Heteranthera limosa; conditions: 500 g ai/ha, Flood; scale of 0 to 100 where 0 is no effect and 100 is complete control
In short: as §3

barnyardgrass [2] = test: Test B flooded paddy test; assay type: in vivo, Echinochloa crus-galli; conditions: 500 g ai/ha, Flood; scale of 0 to 100 where 0 is no effect and 100 is complete control
In short: as §3

[3] = Postemergence, 125 g ai/ha, visual rating on 0 to 100 scale (0 no effect, 100 complete control), approx. 10 days
[4] = Postemergence, 500 g ai/ha, 0 to 100 scale (0 no effect, 100 complete control)
[5] = Preemergence, 125 g ai/ha, 0 to 100 scale where 0 is no effect and 100 is complete control
[6] = Preemergence, 500 g ai/ha, visual rating on 0 to 100 scale (0 no effect, 100 complete control)
[7] = 125 g ai/ha, visual rating on 0 to 100 scale (0 no effect, 100 complete control), approx. 10 days
[8] = 500 g ai/ha, 0 to 100 scale (0 no effect, 100 complete control)

Compound	Plant response rating, Barnyardgrass (barnyardgrass [1]; [3])	Plant response rating, Barnyardgrass (barnyardgrass [1]; [4])	Plant response rating, Barnyardgrass (barnyardgrass [1]; [5])	Barnyardgrass plant response rating (barnyardgrass [1]; [6])	Plant response rating, Kochia (kochia; [3])	Plant response rating, Kochia (kochia; [4])	Plant response rating, Kochia (kochia; [5])	Kochia plant response rating (kochia; [6])	Plant response rating, Ragweed (ragweed; [3])	Plant response rating, Ragweed (ragweed; [4])	Plant response rating, Ragweed (ragweed; [5])	Ragweed plant response rating (ragweed; [6])	Plant response rating, Ryegrass, Italian (ryegrass, Italian; [3])	Plant response rating, Ryegrass, Italian (ryegrass, Italian; [4])	Plant response rating, Ryegrass, Italian (ryegrass, Italian; [5])	Ryegrass, Italian plant response rating (ryegrass, Italian; [6])	Plant response rating, Foxtail, Giant (giant foxtail; [3])	Plant response rating, Foxtail, Giant (giant foxtail; [4])	Plant response rating, Foxtail, Giant (giant foxtail; [5])	Foxtail, Giant plant response rating (giant foxtail; [6])	further results
O=C1NCC(c2cccc(Br)c2)C1C(=O)Nc1ccc(F)cc1F (stereo not drawn) [Compound 308]	70	70	70	80	0	0	0	0	0	0	0	0	0	0	0	0	70	80	80	90	Plant response rating, Pigweed (pigweed; [3]): 0; Plant response rating, Pigweed (pigweed; [4]): 0; Plant response rating, Pigweed (pigweed; [5]): 0; Pigweed plant response rating (pigweed; [6]): 0; Plant response rating, Wheat (wheat; [7]): 0; Plant response rating, Wheat (wheat; [8]): 20; Plant response rating, Corn (corn; [7]): 0; Plant response rating, Corn (corn; [8]): 10; Plant response rating, Blackgrass (blackgrass; [7]): 50; Plant response rating, Blackgrass (blackgrass; [8]): 70; Plant response rating, Galium (galium; [7]): 0; Plant response rating, Galium (galium; [8]): 0; Plant response rating, Rice (rice): 0; Plant response rating, Sedge, Umbrella (sedge, umbrella): 0; Plant response rating, Ducksalad (ducksalad): 90; Plant response rating, Barnyardgrass (barnyardgrass [2]): 70
O=C1NCC(c2cccc(C(F)(F)F)c2)C1C(=O)Nc1cccc(C(F)(F)F)c1 (stereo not drawn) [Compound 313]	20	80	50	80	0	0	0	0	0	0	0	0	0	0	0	0	40	70	30	80	Plant response rating, Pigweed (pigweed; [3]): 0; Plant response rating, Pigweed (pigweed; [4]): 0; Plant response rating, Pigweed (pigweed; [5]): 0; Pigweed plant response rating (pigweed; [6]): 0; Plant response rating, Wheat (wheat; [7]): 0; Plant response rating, Wheat (wheat; [8]): 0; Plant response rating, Corn (corn; [7]): 0; Plant response rating, Corn (corn; [8]): 0; Plant response rating, Blackgrass (blackgrass; [7]): 0; Plant response rating, Blackgrass (blackgrass; [8]): 0; Plant response rating, Galium (galium; [7]): 0; Plant response rating, Galium (galium; [8]): 0; Plant response rating, Rice (rice): 0; Plant response rating, Sedge, Umbrella (sedge, umbrella): 0; Plant response rating, Ducksalad (ducksalad): 0; Plant response rating, Barnyardgrass (barnyardgrass [2]): 60
O=C1NCC(c2cccc(I)c2)C1C(=O)Nc1ccccc1C(F)(F)F (stereo not drawn) [Compound 328]	30	80	40	80	0	20	0	20	0	0	0	0	0	20	0	40	70	80	80	90	Plant response rating, Pigweed (pigweed; [3]): 0; Plant response rating, Pigweed (pigweed; [4]): 0; Plant response rating, Pigweed (pigweed; [5]): 0; Pigweed plant response rating (pigweed; [6]): 0; Plant response rating, Wheat (wheat; [7]): 0; Plant response rating, Wheat (wheat; [8]): 0; Plant response rating, Corn (corn; [7]): 0; Plant response rating, Corn (corn; [8]): 0; Plant response rating, Blackgrass (blackgrass; [7]): 30; Plant response rating, Blackgrass (blackgrass; [8]): 40; Plant response rating, Galium (galium; [7]): 20; Plant response rating, Galium (galium; [8]): 50; Plant response rating, Rice (rice): 0; Plant response rating, Sedge, Umbrella (sedge, umbrella): 0; Plant response rating, Ducksalad (ducksalad): 35; Plant response rating, Barnyardgrass (barnyardgrass [2]): 0
O=C1NCC(c2cccc(-n3ccc(C(F)(F)F)n3)c2)C1C(=O)Nc1ccccc1C(F)(F)F (stereo not drawn) [Compound 329]	0	0	0	0	0	0	0	0	0	0	0	0	0	0	0	0	0	30	0	60	Plant response rating, Pigweed (pigweed; [3]): 0; Plant response rating, Pigweed (pigweed; [4]): 0; Plant response rating, Pigweed (pigweed; [5]): 0; Pigweed plant response rating (pigweed; [6]): 0; Plant response rating, Wheat (wheat; [7]): 0; Plant response rating, Wheat (wheat; [8]): 0; Plant response rating, Corn (corn; [7]): 0; Plant response rating, Corn (corn; [8]): 0; Plant response rating, Blackgrass (blackgrass; [7]): 0; Plant response rating, Blackgrass (blackgrass; [8]): 0; Plant response rating, Galium (galium; [7]): 0; Plant response rating, Galium (galium; [8]): 0; Plant response rating, Rice (rice): 0; Plant response rating, Sedge, Umbrella (sedge, umbrella): 0; Plant response rating, Ducksalad (ducksalad): 0; Plant response rating, Barnyardgrass (barnyardgrass [2]): 0
O=C1NCC(c2cccc(Oc3ccccc3)c2)C1C(=O)Nc1ccccc1F (stereo not drawn) [Compound 330]	60	60	60	70	0	0	20	20	0	0	0	0	0	0	30	40	80	80	50	80	Plant response rating, Pigweed (pigweed; [3]): 0; Plant response rating, Pigweed (pigweed; [4]): 0; Plant response rating, Pigweed (pigweed; [5]): 0; Pigweed plant response rating (pigweed; [6]): 20; Plant response rating, Wheat (wheat; [7]): 0; Plant response rating, Wheat (wheat; [8]): 0; Plant response rating, Corn (corn; [7]): 0; Plant response rating, Corn (corn; [8]): 0; Plant response rating, Blackgrass (blackgrass; [7]): 0; Plant response rating, Blackgrass (blackgrass; [8]): 0; Plant response rating, Galium (galium; [7]): 20; Plant response rating, Galium (galium; [8]): 30; Plant response rating, Rice (rice): 0; Plant response rating, Sedge, Umbrella (sedge, umbrella): 0; Plant response rating, Ducksalad (ducksalad): 100; Plant response rating, Barnyardgrass (barnyardgrass [2]): 0
